Source: patent US10301354B2, “Antibacterial and fungicidal peptide in which lysine and tryptophan residues are repeated, and use thereof” (priority 2011, dated 2019)
Converted amounts (≈) assume the structure as drawn. Read-outs that look alike come from different tables or passages of the source. Where no end group is shown, it is not given here.

How the values were obtained:
[1] = system: C. albicans CCARM 14001; assay: MIC in antibiotic-tolerant fungi; format: cell-based; conditions: Candida albicans, CCARM14001; RMPI 1640
Protocol: (§1) To measure the fungicidal activity of the peptide prepared in Example 1, the present inventors measured MIC, the minimal concentration that can keep the strain without being divided. For the measurement of fungicidal activity, pathogenic fungi selected from the group consisting of Candida albicans, C. catenulate, C. intermidia, C. rugosa, C. glabrata and C. melibiosica were used. After cultured in optimal media, the strains were diluted at the density of 2×10^5 cells/ml, which were then inoculated on microtitrate plates. The peptide synthesized in Example 1 and the positive control peptide (Melittin) were 2-fold diluted in solution 1 (10 mM sodium phosphate buffer, pH 7.2) and solution 2 (phosphate buffered saline) from 128 μM/well, which were added in the plate, followed by culture at 37° C. for 18˜24 hours. OD620 was measured with a microtitrate plate reader to determine MIC of each strain.
(§2) To measure the fungicidal activity of the peptide of the present invention in antibiotic-tolerant fungi, MIC of the peptide was measured by the same manner as described in Example <2-2> using RMPI 1640 and antibiotic-tolerant Candida albicans (C. albicans CCARM 14001, 14007, 14020).

[2] = system: C. albicans CCARM 14007; assay: MIC in antibiotic-tolerant fungi; format: cell-based; conditions: Candida albicans, CCARM14007; RMPI 1640
Protocol: as §1, §2

[3] = system: C. albicans CCARM 14020; assay: MIC in antibiotic-tolerant fungi; format: cell-based; conditions: Candida albicans, CCARM14020
Protocol: as §1, §2

[4] = system: L. monocytogenes; format: cell-based, Listeria monocytogenes
Text: (§3) To measure the antibacterial activity of the peptide prepared in Example 1, the present inventors measured MIC, the minimal concentration that can keep the strain without being divided. For the measurement of antibacterial activity, Gram-positive bacteria selected from the group consisting of Bacillus subtilis, Staphylococcus aureus and Listeria monocytogenes, Gram-negative bacteria selected from the group consisting of Escherichia coli, Psedomonas aeruginosa and Salmonella typhimurium, and antibiotic-tolerant strains selected from the group consisting of E. coli (E. coli CCARM 1229, 1238), Salmonella (S. typhimurium CCARM 8007, 8009, 8013) and Staphylococcus (S. aureus CCARM 3089, 3090, 3108, 3114, 3126) were used. After cultured in optimal media, the strains were diluted at the density of 2×10^5 cells/ml, which were then inoculated on microtitrate plates. The peptide synthesized in Example 1 and the positive control peptide (Melittin) were 2-fold diluted in sodium phosphate buffer and phosphate buffered saline (PBS) from 200 μM/well, which were added in the plate, followed by culture at 37° C. for 18˜24 hours. OD620 was measured with a microtitrate plate reader to determine MIC of each strain. The results are presented in Table 1 (the number in bracket indicates the one obtained from PBS).

[5] = system: E. coli CCARM 1238; format: cell-based, Escherichia coli
Text: as §3

[6] = system: S. typhimurium CCARM 8007; format: cell-based, Salmonella typhimurium
Text: as §3

[7] = system: S. typhimurium CCARM 8009; format: cell-based, Salmonella typhimurium
Text: as §3

[8] = system: S. typhimurium CCARM 8013; format: cell-based, Salmonella typhimurium
Text: as §3

[9] = system: S. aureus CCARM 3089; format: cell-based, Staphylococcus aureus
Text: as §3

[10] = system: S. aureus CCARM 3090; format: cell-based, Staphylococcus aureus
Text: as §3

[11] = system: S. aureus CCARM 3108; format: cell-based, Staphylococcus aureus
Text: as §3

[12] = system: S. aureus CCARM 3114; format: cell-based, Staphylococcus aureus
Text: as §3

[13] = system: S. aureus CCARM 3126; assay: MIC in antibiotic-tolerant strains; format: cell-based, Staphylococcus aureus
Text: as §3

OC(Cn1cncn1)(Cn1cncn1)c1ccc(F)cc1F [Fluconazole]
MIC [1]: > 128 µM
MIC [2]: > 128 µM
MIC [3]: > 128 µM

CC[C@H](C)[C@H](NC(=O)CN)C(=O)NCC(=O)N[C@@H](C)C(=O)N[C@H](C(=O)N[C@@H](CC(C)C)C(=O)N[C@@H](CCCCN)C(=O)N[C@H](C(=O)N[C@@H](CC(C)C)C(=O)N[C@H](C(=O)N[C@H](C(=O)NCC(=O)N[C@@H](CC(C)C)C(=O)N1CCC[C@H]1C(=O)N[C@@H](C)C(=O)N[C@@H](CC(C)C)C(=O)N[C@H](C(=O)N[C@@H](CO)C(=O)N[C@@H](Cc1c[nH]c2ccccc12)C(=O)N[C@H](C(=O)N[C@@H](CCCCN)C(=O)N[C@@H](CCCNC(=N)N)C(=O)N[C@@H](CCCCN)C(=O)N[C@@H](CCCNC(=N)N)C(=O)N[C@@H](CCC(N)=O)C(=O)N[C@@H](CCC(N)=O)C(N)=O)[C@@H](C)CC)[C@@H](C)CC)[C@@H](C)O)[C@@H](C)O)C(C)C)C(C)C [Melittin]
MIC ([4]; PBS (number in bracket)): (1.56) μM
MIC ([4]; sodium phosphate buffer): 1.56 µM (≈ 4.44 µg/mL)
MIC ([5]; PBS (number in bracket)): (1.56) μM
MIC ([5]; sodium phosphate buffer): 1.56 µM (≈ 4.44 µg/mL)
MIC ([6]; PBS (number in bracket)): (12.5) μM
MIC ([6]; sodium phosphate buffer): 6.25 µM (≈ 17.8 µg/mL)
MIC ([7]; PBS (number in bracket)): (12.5) μM
MIC ([7]; sodium phosphate buffer): 6.25 µM (≈ 17.8 µg/mL)
MIC ([8]; PBS (number in bracket)): (6.25) μM
MIC ([8]; sodium phosphate buffer): 3.12 µM (≈ 8.88 µg/mL)
MIC ([9]; PBS (number in bracket)): (1.56) μM
MIC ([9]; sodium phosphate buffer): 1.56 µM (≈ 4.44 µg/mL)
MIC ([10]; PBS (number in bracket)): (3.12) μM
MIC ([10]; sodium phosphate buffer): 3.12 µM (≈ 8.88 µg/mL)
MIC ([11]; PBS (number in bracket)): (1.56) μM
MIC ([11]; sodium phosphate buffer): 1.56 µM (≈ 4.44 µg/mL)
MIC ([12]; PBS (number in bracket)): (3.12) μM
MIC ([12]; sodium phosphate buffer): 3.12 µM (≈ 8.88 µg/mL)
MIC ([13]; PBS (number in bracket)): (1.56) μM
MIC ([13]; sodium phosphate buffer): 1.56 µM (≈ 4.44 µg/mL)

KWKWKWKW-NH2 [SEQ. ID. NO: 3]
MIC ([13]; sodium phosphate buffer): 12.5 µM
